Measurements: patent publication US20180147206A1, “ACTIVATION OF NEURONAL STORE-OPERATED CALCIUM ENTRY PATHWAY FOR THE TREATMENT OF ALZHEIMER'S DISEASE” (The Board of Regents of the University of Texas System, priority 2015, published 2018)
Each block holds one compound with its values, some of them ahead of it.

Key:
TRPC3/6/7 channels = settings: recent study (Montecinos-Oliva et al., 2014); cited from earlier work
[1] = tested on: mushroom spines of hippocampal neurons; test: Dendritic spine analysis in primary hippocampal neural cultures; assay type: cell-based, mouse; settings: for mushroom spine loss: 30 nM for 16 hours
Experimental: FIGS. 4A-E. NSN21778 and Hyperforin rescue synaptic nSOC and mushroom spine loss in AD hippocampal neurons. (FIG. 4A) Chemical structure of NSN21778 and Hyperforin. (FIG. 4B) Time-course of GCaMP5.3 fluorescence signal changes in the spines of wild-type, PS1KI and APPKI hippocampal neurons. The time of extracellular Ca^2+ re-addition is indicated by a black bar above the traces. 100 μM DHPG was added 50 sec prior to Ca^2+ re-addition. The results are shown for control (CON) neurons and for neurons pretreated with 300 nM NSN21778 (+NSN) or 300 nM Hyperforin (+Hyp) for 30 min as indicated. For each experimental group individual spine (grey) and average (red) fluorescence traces are shown. (FIG. 4C) The average nSOC spine peak amplitude is shown for each group of cells shown on panel B. The mean AF/Fo signals for each group and presented as mean±SE (n≥45 spines). ***, p <0.001. (FIG. 4D) Confocal images of wild-type, PS1KI and APPKI hippocampal neurons transfected with TD-Tomato and fixed at DIV15-16. The images are shown for control neurons (CON) and for neurons treated with 30 nM NSN21778 (+NSN) or 30 nM Hyperforin (+Hyp) for 16 hours prior to fixation. Scale bar is 10 μm. (FIG. 4E) The average fraction of mushroom spines for each group of cells shown on FIG. 4D is presented as mean±SE (n≥18 neurons). ***, p <0.001.
FIGS. 5A-E. TRPC6 is a molecular target for NSN21778 and Hyperforin. (FIGS. 5A-B) Time course of Fura-2 Ca^2+ signals is shown for HEK293 cells transfected with EGFP plasmid (GFP) or combination of EGFP and TRPC6 plasmids (TRPC6). Cells were incubated in ACSF media containing 2 mM Ca^2+. In experiments shown in FIG. 5B, cells were moved to modified ACSF media containing 0.1 mM Ca^2+ for 2 min and then returned to the media containing 2 mM Ca^2+ with addition of 100 μM OAG. The time of addition of 1 μM Hyperforin (Hyp) or NSN21778 (NSN) is indicated by red bars above the Fura-2 traces. For each experimental group individual spine (grey) and average (red) fluorescence traces are shown. (FIG. 5C) The average Ca^2+ influx peak is shown for experiments presented on FIGS. 5A-B as mean±SE (n≥81). (FIG. 5D) Confocal images of wild-type and PS1KI hippocampal neurons transfected with TD-Tomato and fixed at DIV15-16. The neurons were infected with lentiviruses encoding control RNAi (siCtrl), RNAi against TRPC6 (siT6) or RNAi against Orai2 (siO2). The images are shown for no drug treated neurons (CON) and for neurons treated with 30 nM NSN21778 (+NSN) or 30 nM Hyperforin (+Hyp) for 16 hours prior to fixation. Scale bar is 10 μm. No drug treated group of wild-type and PS1KI neurons is from the same experiment as shown on FIG. 2A-J. (FIG. 5E) The average fraction of mushroom spines for each group of cells shown on panel A is presented as mean±SE (n≥19 neurons). ***, p <0.001.
Dendritic Spine Analysis in Primary Hippocampal Neural Cultures. The hippocampal cultures of PS1KI, APPKI and WT mice were established from postnatal day 0-1 pups and maintained in culture as the inventors described previously [Zhang, 2010 #5733]. For assessment of synapse morphology, hippocampal cultures were transfected with TD-Tomato plasmid at DIV7 using the calcium phosphate method and fixed (4% formaldehyde, 4% sucrose in PBS, pH 7.4) at DIV15-16. A Z-stack of optical section was captured using 100× objective with a confocal microscope (Carl Zeiss Axiovert 100M with LSM510). 18-20 cultured neurons from three batches of cultures were used for quantitative analysis per genotype. Quantitative analysis for dendritic spines was performed by using NeuronStudio software package [Rodriguez, 2008 #6276]. To classify the shape of neuronal spines in culture, the inventors adapted an algorithm from published method [Rodriguez, 2008 #6276]. In classification of spine shapes the inventors used the following cutoff values: aspect ratio for thin spines (AR_thin(crio))=2.5, head to neck ratio (HNR(crit))=1.4, and head diameter (HD(crit))=0.5 μm. […]

TRPC6 = target: T1, TRPC6 (Homo sapiens, UniProt Q9Y210); test: Fura-2 Ca2+ imaging in TRPC6-transfected HEK293 cells; assay type: cell-based; settings: for Ca2+ influx: 1 μM; for Ca2+ influx response: TRPC6-transfected cells, 100 μM
T1 construct: expressed in transfected cells; host or cells: HEK293
T1 sequence (Q9Y210 1-931): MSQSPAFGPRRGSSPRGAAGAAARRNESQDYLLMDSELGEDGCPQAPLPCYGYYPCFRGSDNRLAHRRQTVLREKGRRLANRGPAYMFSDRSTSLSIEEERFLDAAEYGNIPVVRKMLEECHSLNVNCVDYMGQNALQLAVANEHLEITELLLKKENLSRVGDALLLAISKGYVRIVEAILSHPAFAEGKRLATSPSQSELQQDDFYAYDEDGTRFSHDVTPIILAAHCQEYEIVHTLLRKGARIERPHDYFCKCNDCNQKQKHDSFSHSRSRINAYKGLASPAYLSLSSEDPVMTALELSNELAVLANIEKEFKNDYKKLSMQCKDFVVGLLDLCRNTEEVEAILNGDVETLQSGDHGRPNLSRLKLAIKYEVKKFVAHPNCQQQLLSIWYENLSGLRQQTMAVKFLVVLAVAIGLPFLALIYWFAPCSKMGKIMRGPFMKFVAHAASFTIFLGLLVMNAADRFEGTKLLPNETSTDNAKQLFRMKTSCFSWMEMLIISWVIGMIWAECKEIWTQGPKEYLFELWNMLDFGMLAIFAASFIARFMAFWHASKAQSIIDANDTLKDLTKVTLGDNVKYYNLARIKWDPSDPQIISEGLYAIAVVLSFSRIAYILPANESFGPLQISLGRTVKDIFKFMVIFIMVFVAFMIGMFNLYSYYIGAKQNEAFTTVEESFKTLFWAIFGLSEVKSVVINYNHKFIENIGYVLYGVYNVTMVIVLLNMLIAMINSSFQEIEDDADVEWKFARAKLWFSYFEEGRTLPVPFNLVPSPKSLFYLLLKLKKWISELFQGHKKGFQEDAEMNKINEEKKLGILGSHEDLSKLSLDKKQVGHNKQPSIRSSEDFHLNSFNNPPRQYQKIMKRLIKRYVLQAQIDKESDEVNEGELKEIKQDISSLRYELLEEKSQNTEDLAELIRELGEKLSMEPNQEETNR

spine nSOC channels = test: GCamp5.3 Ca2+ imaging of synaptic nSOC in cultured hippocampal neurons; assay type: cell-based, mouse
[2] = tested on: AβPPSwe/PSEN1ΔE9 (AβPP/PS1) transgenic mice; settings: previous studies; cited from earlier work

Compound: tetrahydrohyperforin [IDN5706]
- Aβ-induced synaptic plasticity defects (TRPC3/6/7 channels): rescued

Compound: CC(C)=CCC[C@]1(C)[C@@H](CC=C(C)C)C[C@@]2(CC=C(C)C)C(=O)[C@]1(C(=O)C(C)C)C(=O)C(CC=C(C)C)=C2O [Hyperforin]
- mushroom spines ([1]; PS1KI and APPKI neurons, 30 nM for 16 hr): complete rescue
- mushroom spine loss ([1]; PS1KI cultures infected with control RNAi lentiviruses): rescued mushroom spine loss
- mushroom spine loss ([1]; PS1KI hippocampal neurons following knockdown of TRPC6 or Orai2): failed to rescue mushroom spine loss
- mushroom spine loss ([1]; wild-type neurons with knockdown of TRPC6 or Orai2): failed to rescue
- fraction of mushroom spines ([1]; wild-type neurons, 30 nM for 16 hr): no significant effect
- Ca2+ influx (TRPC6; TRPC6-transfected HEK293 cells, 2 mM Ca2+): activated Ca^2+ influx
- Ca2+ influx (TRPC6; control HEK293 cells transfected with EGFP plasmid): not in control cells
- spine nSOC (spine nSOC channels; PS1KI and APPKI hippocampal neurons, 300 nM applied prior to Ca2+ re-addition): rescued spine nSOC
- spine nSOC (spine nSOC channels; wild-type spines, 300 nM): no significant effect
- toxicity, acute (hippocampal neurons): very large Ca^2 elevations and toxicity
- toxicity, overnight (hippocampal neurons): neuronal toxicity in some batches
- beta-amyloid neurotoxicity and spatial memory impairments [2]: able to prevent

- Ca2+ influx response (TRPC6; standard recording conditions (data not shown)): highly variable responses
- Ca2+ influx response (TRPC6; stores partially depleted by 0.1 mM Ca2+ preincubation): more consistent responses
Compound: CCCCCCCC/C=C/CCCCCCCC(=O)OCC(CO)OC(C)=O (stereo not shown) [OAG]
- Ca2+ responses in spines (spine nSOC channels; direct application to hippocampal neuronal cultures (data not shown)): induced Ca^2+ responses in just a few spines
